According to patent US20230390304A1, “Method and Composition for Treating Epilepsy” (Lipocine Inc., priority 2022, published 2023):

Experiment: Solubility of 3α-OH-5β-pregnan-20-one in SBE-β-CD (cyclodextrin) solution
Assay type: physicochemical
Description: When utilizing sulfobutylether-β-cyclodextrin (SBE-3-CD) oral compositions including solubilized or semi solid 3α-OH-5β-pregnan-20-one, it may be challenging to load proper amounts of 3α-OH-5β-pregnan-20-one so as to deliver effective serum levels of 3α-OH-5β-pregnan-20-one due to limitations with respect to 3α-OH-5β-pregnan-20-one solubility in various cyclodextrin solutions including SBE-β-CD (e.g. only ˜6 mg/ml of 3α-OH-5β-pregnan-20-one solubility in 24% w/v non-encapsulated SBE-β-CD solution). The solubilized fraction of 3α-OH-5β-pregnan-20-one began to decline, as observed by precipitation, when 3α-OH-5β-pregnan-20-one concentration was above 8 mg/ml. The amount of 3α-OH-5β-pregnan-20-one in the cyclodextrin solution can only be enabled by about 0.6% w/w loading amount of the composition fill. Moreover, high cyclodextrin amounts required to solubilize 3α-OH-5β-pregnan-20-one also present safety concerns. In some aspects, the compositions and dosage forms of this invention can comprise higher 3α-OH-5β-pregnan-20-one loading amounts than ones formulated in non-encapsulated SBE-β-CD or any cyclodextrin solution composition.

For `CC(=O)[C@H]1CC[C@H]2[C@@H]3CC[C@@H]4C[C@H](O)CC[C@]4(C)[C@H]3CC[C@]12C` [3α-OH-5β-pregnan-20-one], the “3α-OH-5β-pregnan-20-one concentration above which the solubilized fraction began to decline, as observed by precipitation” value (cyclodextrin (SBE-β-CD) solution) was “above 8 mg/ml”, the “loading amount of the composition fill enabled in the cyclodextrin solution” value (cyclodextrin solution) was “about 0.6 % w/w” and the 3α-OH-5β-pregnan-20-one solubility (in 24% w/v non-encapsulated SBE-β-CD solution) was about 6000 µg/mL.
